{
  "source": "patent US20180049996A1",
  "about": "“THERAPEUTIC AGENT FOR CHRONIC RESPIRATORY DISEASE AND COMPOSITION FOR INHIBITING CARDIAC FIBROSIS” (NIPPON HYPOX LABORATORIES INCORPORATED, priority 2015, published 2018)",
  "key": {"IL-5": {"test_system": "IL-5", "experiment": "IL-5 level in BAL fluid (ELISA), ovalbumin asthma model", "type": "in vivo, BALB/c female mice", "conditions": "HTHQ 20 and 40 mg/kg/day oral; compared to OVA group", "description": "(§1) 6 week old BALB/c female mice were purchased and the mice were divided into 5 groups with 5 animals per group shown in Table 3 below after habituation breeding of about 2 weeks.\n(§2) The test was conducted on the schedule of sensitization, causing diseases and administration of test materials shown in FIG. 12. “IP” in FIG. 12 refers to ovalbumin sensitization treatment by the intraperitoneal administration of ovalbumin/aluminum hydroxide, and “IH” refers to inhalation exposure treatment of ovalbumin, and “PO” refers to the administration of the test materials. […]\n(§3) All mice were euthanized by intraperitoneal injection of pentobarbital (Hanrimu pharmaceutical, South Korea) at 50 mg/kg and the bronchi were excised on day 25 of the test. […] After preparing slide samples from 100 μL of BAL cell fluid using Cytospin (4° C., 1000 rpm×5 min), the cell numbers of inflammatory cells (eosinophils, macrophages, lymphocytes and neutrophils) present in the BAL fluid were counted using a Diff-Quik stain kit.\n(§4) The supernatant of the BAL fluid stored was taken out of the super-cryostat and IL-4, IL-5 and IL-13 levels were measured as the pro-inflammatory cytokine contents in the supernatant of the BAL fluid. A quantitative ELISA kit (a product from R&D systems) and a microplate reader (a product from Bio-Rad Laboratories, Inc.) were used for the measurement and the measurement wavelength was 450 nm."}, "[1]": {"test_system": "Myocardial Disorder Induced by Doxorubicin", "experiment": "Histopathologic examination of the hearts (light microscope), myocardial disorder induced by doxorubicin", "type": "in vivo, female SD rats", "conditions": "for Severity score: Cell infiltration in interstitial tissue / Severity score: Degeneration of myocardial cells / Severity score: Loss and disorganization of myocardial fibers / Severity score: Loss of intercalated discs / Severity score: Loss of striations / Severity score: Vacuolation of myocardial fibers: Test group 2: doxorubicin 13 mg/kg + HTHQ 50 mg/kg; for lesions of cardiac tissue (light microscope): Test group 2: doxorubicin + HTHQ 50 mg/kg, compared to test group 1", "description": "Doxorubicin is used to produce disease-model animals of cardiomyopathy. The doxorubicin and 2,3,5-trimethylhydroquinone-1-hexyl ether (HTHQ) as the hydroquinone derivative represented by the general formula (1) described above of the present invention were simultaneously administered to female SD rats of 4 week old after birth to examine the effect of the action. The test groups consisted of the control group to which sterile saline was administered; test group 1 to which doxorubicin (13 mg/kg body weight) alone was administered; test group 2 to which doxorubicin (13 mg/kg body weight) and HTHQ (50 mg/kg body weight) were administered in combination; and test group 3 to which doxorubicin (13 mg/kg body weight), HTHQ (50 mg/kg body weight) and recombinant human erythropoietin (400 IU/kg body weight) were administered in combination. […] The test group 3 is used to confirm the presence or absence of the inhibitory effect brought about by combining HTHQ and rHuEPO on myocardial disorder.\nDoxorubicin was orally administered in a single dose to the rats in test groups 1 to 3. 2,3,5-trimethylhydroquinone-1-hexyl ether (HTHQ) was orally administered to the rats in test groups 2 and 3 twice in total: 3 days before the administration of doxorubicin and on the day of the administration. Recombinant human erythropoietin was daily administered to the rats in test group 3 starting from 3 days before the administration of doxorubicin by intravenous injection. The number of animals in each group was 16. 8 animals of each group were sacrificed after collecting blood on day 7 and 14 after the administration of doxorubicin, and the autopsy of the hearts, the calculation of the relative weights of the hearts, the histopathologic examination of the hearts and the hematological examination were conducted.\n“−” indicates “not found”, “+” indicates “mild”, “++” indicates “moderate”, and “+++” indicates “severe” in severity scores of the table."}, "IL-4": {"test_system": "IL-4", "experiment": "IL-4 level in BAL fluid (ELISA), ovalbumin asthma model", "type": "in vivo, BALB/c female mice", "conditions": "HTHQ 20 and 40 mg/kg/day oral; compared to OVA group", "description": "as §1, §2, §3, §4"}},
  "data": [
    {"smiles": "CCCCCCOc1cc(C)c(O)c(C)c1C", "note": "[HTHQ, 2,3,5-trimethylhydroquinone-1-hexyl ether]", "values": [
      {"measurement": "IL-5 content in BAL fluid", "setting": "IL-5", "value": "significantly reduced"},
      {"measurement": "Severity score: Cell infiltration in interstitial tissue", "setting": "[1]; Day 7 after administration", "value": "−"},
      {"measurement": "Severity score: Degeneration of myocardial cells", "setting": "[1]; Day 7 after administration", "value": "+"},
      {"measurement": "Severity score: Loss and disorganization of myocardial fibers", "setting": "[1]; Day 7 after administration", "value": "+"},
      {"measurement": "Severity score: Loss of intercalated discs", "setting": "[1]; Day 7 after administration", "value": "+"},
      {"measurement": "Severity score: Loss of striations", "setting": "[1]; Day 7 after administration", "value": "+"},
      {"measurement": "Severity score: Vacuolation of myocardial fibers", "setting": "[1]; Day 7 after administration", "value": "−"},
      {"measurement": "Severity score: Cell infiltration in interstitial tissue", "setting": "[1]; Day 14 after administration", "value": "−"},
      {"measurement": "Severity score: Degeneration of myocardial cells", "setting": "[1]; Day 14 after administration", "value": "+"},
      {"measurement": "Severity score: Loss and disorganization of myocardial fibers", "setting": "[1]; Day 14 after administration", "value": "+"},
      {"measurement": "Severity score: Loss of intercalated discs", "setting": "[1]; Day 14 after administration", "value": "+"},
      {"measurement": "Severity score: Loss of striations", "setting": "[1]; Day 14 after administration", "value": "+"},
      {"measurement": "Severity score: Vacuolation of myocardial fibers", "setting": "[1]; Day 14 after administration", "value": "+"},
      {"measurement": "lesions of cardiac tissue (light microscope)", "setting": "[1]; day 7", "value": "alleviated"},
      {"measurement": "lesions of cardiac tissue (light microscope)", "setting": "[1]; day 14", "value": "also alleviated"},
      {"measurement": "IL-4 content in BAL fluid", "setting": "IL-4", "value": "significantly reduced"}
    ]}
  ]
}
